Assay results reported in patent publication US11129845B2, “Compositions and methods for the delivery of nucleic acids” (CASE WESTERN RESERVE UNIVERSITY, priority 2014, dated 2021).

Tests used:
MDA-MB-231.DR cells = experiment: MTT cytotoxicity with PTX after siRNA nanoparticles, MDA-MB-231.DR; format: cell-based; conditions: Homo sapiens, 0.5 ng/mL PTX 48 hours, combination: nanoparticles 48 hours first, read-out: cell viability (MTT)
Protocol: (§1) Cytotoxicity assays were performed in a 96-well plate as described previously, by seeding 2,000 MDA-MB-231 or MDA-MB-231.DR cells/well. […] Next, the wells were washed twice with PBS and incubation with various concentrations of PTX in fresh media. After 2 additional days, the MTT reagent (Invitrogen) was added to the cells for 4 hours followed by the addition of SDS-HCl and further incubation for 4 hours. The absorbance of each well was measured at 570 nm using a SpectraMax spectrophotometer (Molecular Devices). Cellular viability was calculated as the average of the set of triplicates for each PTX concentration and was normalized relative to the no treatment control. Drug resistance was confirmed with an MTT assay to determine the IC50 of paclitaxel. The IC50 was defined as the dose of drug required to inhibit cell viability by 50%.

MDA-MB-231 cells = experiment: MTT cytotoxicity with PTX after siRNA nanoparticles, MDA-MB-231; format: cell-based; conditions: Homo sapiens; MDA-MB-231, 0.5 ng/mL PTX 48 hours; combination: nanoparticles 48 hours first; read-out: cell viability (MTT)
Protocol: as §1

Red blood cells (RBCs) = experiment: pH-sensitive hemolytic activity of carrier library; format: cell-based, rat; conditions: all N/P ratios (5, 10, 15) and pHs (7.4, 6.5, 5.4) tested
Protocol: Hemolytic activity of each carrier was determined to verify the pH-sensitive membrane disruption capabilities of each carrier in the delivery system. Red blood cells (RBCs) extracted from rats were purchased from Innovative Research Inc. (Novi, Mich.) and diluted 1:50 in PBS solutions of pHs=5.4, 6.5, or 7.4. A total of 100 μL of nanoparticles were created at N/P ratios of 5, 10, 15 and then incubated with 100 μL of diluted RBCs at 37° C. for 2 h. Nanoparticles were formulated so that the final amine concentration for all the samples, after mixing with the RBCs, was 150 μM. Multiple pHs were tested to predict if the nanoparticles could disrupt membranes of the endosomal-lysosomal compartments (pH=5-6), without affecting the integrity of the outer cell membrane prior to endocytosis (pH=7.4). The absorbance of each test sample was measured on a SpectraMax spectrophotometer at a wavelength of 540 nm in order to determine the amount of hemoglobin released from the RBCs, due to membrane destabilization, relative to that achieved by a positive control treatment of 1% (v/v) Triton-X100 surfactant during the 2 hour incubation period.

[1] = system: HT29 colon carcinoma cells; experiment: Cellular uptake of Alexa Fluor 488-siRNA via flow cytometry; format: cell-based, human; conditions: HT29, N/P=18, 4 h, 100 nM Alexa Fluor 488-siRNA
Protocol: Flow cytometry was used to investigate the cellular uptake of our delivery system in HT29 colon carcinoma cells. All carriers in the library were formulated into nanoparticles by condensing Alexa Fluor 488-labeled siRNA at the optimal N/P ratio determined by the above luciferase knockdown studies. Approximately 50,000 cancer cells were seeded in 6-well plates and allowed to grow until 30-50% confluence was reached. The cancer cells were transfected with a 100 nM siRNA dose in serum-free media. After 4 h, the transfection media were aspirated and the cells were washed twice with PBS. The cells were then trypsinized, collected, and fixed with 2% paraformaldehyde in PBS, prior to flow cytometric analysis.

[2] = Zeta-potential of siRNA-lipid complexes (Malvern Zetasizer); format: physicochemical
Protocol: (§2) The cationic lipid carriers are dissolved in ethanol at a stock concentration of 2.5 mM, while all siRNA is reconstituted in nuclease-free water at a 0.25 μg/μL (18.8 μM) concentration. Nanoparticles are formulated by mixing the carriers with siRNA for a period of 30 min in RNase-free phosphate buffer saline (PBS) at pre-specified N/P ratios (N=number of protonable amines in lipid, P=number of phosphate groups in the siRNA). In preparing the lipoplexes, proper dilutions were made such that the volume ratio of ethanol:water was kept constant at 1:20. Minimizing the amount of ethanol is important because it is effective in dissolving lipids, thus inhibiting particle formation. The diameters (as determined by dynamic light scattering) and zeta potentials of all nanoparticles were analyzed using a Malvern Zetasizer instrument at pH=7.4. siRNA encapsulation efficiency was calculated using a RiboGreen fluorescence-based assay from Invitrogen, designed specifically for detection of free RNA at […] wavelengths of 480 and 520 nm, respectively. Nanoparticles were created with all carriers in the library so that final siRNA concentrations were 1.6 μg/mL. A linear standard curve was utilized to calculate the encapsulation efficiencies from signal intensities measured by a SpectraMax microplate reader (Molecular Devices).

[3] = Nanoparticle diameter and polydispersity by dynamic light scattering (Malvern Zetasizer); format: physicochemical; conditions: for Nanoparticle diameter as measured by dynamic light scattering: siRNA-lipid complexes
Protocol: as §2

Compound	viability at 0.0005 µg/mL (MDA-MB-231.DR cells) [%]	viability at 0.0005 µg/mL (MDA-MB-231 cells) [%]	hemolytic activity relative to Triton X-100 (Red blood cells (RBCs))	cellular uptake, mean fluorescence intensity (MFI) [1]	Zeta-potential of siRNA-lipid complexes ([2]; pH = 7.4, N/P = 2) [mV]	Zeta-potential of siRNA-lipid complexes ([2]; pH = 7.4, N/P = 5) [mV]	Zeta-potential of siRNA-lipid complexes ([2]; pH = 7.4, N/P = 8) [mV]	Zeta-potential of siRNA-lipid complexes ([2]; pH = 7.4, N/P = 10) [mV]	Zeta-potential of siRNA-lipid complexes ([2]; pH = 7.4, N/P = 15) [mV]	Polydispersity of siRNA-lipid complexes ([3]; N/P = 2)	Polydispersity of siRNA-lipid complexes ([3]; N/P = 5)	Polydispersity of siRNA-lipid complexes ([3]; N/P = 8)	Polydispersity of siRNA-lipid complexes ([3]; N/P = 10)	Polydispersity of siRNA-lipid complexes ([3]; N/P = 15)	Nanoparticle diameter as measured by dynamic light scattering ([3]; N/P = 2) [nm]	Nanoparticle diameter as measured by dynamic light scattering ([3]; N/P = 5) [nm]	Nanoparticle diameter as measured by dynamic light scattering ([3]; N/P = 8) [nm]	Nanoparticle diameter as measured by dynamic light scattering ([3]; N/P = 10) [nm]	Nanoparticle diameter as measured by dynamic light scattering ([3]; N/P = 15) [nm]
CC(=O)O[C@H]1C(=O)[C@@]2(C)[C@H]([C@H](OC(=O)c3ccccc3)[C@]3(O)C[C@H](OC(=O)[C@H](O)[C@@H](NC(=O)c4ccccc4)c4ccccc4)C(C)=C1C3(C)C)[C@]1(OC(C)=O)CO[C@@H]1C[C@@H]2O [PTX, paclitaxel]	80.7 ± 2.9	44.6 ± 6.6																	
CCCCC/C=C\C/C=C\CCCCCCCC(=O)NC(CS)C(=O)NCCNC(=O)CCN(CCCNCCCCNCCCN)CCC(=O)NCCNC(=O)C(CS)NC(=O)CCCCCCC/C=C\C/C=C\CCCCC (stereo not shown) [SCLn]			greatest hemolytic activity	4066±185	−28.35 ± 3.61	26.89 ± 1.85	26.03 ± 2.25	28.59 ± 2.25	17.15 ± 2.99	0.298	0.233	0.140	0.184	0.180	482 ± 40	185 ± 22	51 ± 14	50 ± 12	48 ± 12
